Assay results: paper PMC9172056 (Journal of medicinal chemistry, 2022)

Columns and labels:
[1] = in vitro; conditions: cat
[2] = biological target: MERS-CoV 3CL^pro (Middle East respiratory syndrome-related coronavirus, UniProt K9N7C7); test: biochemical
[3] = biological target: SARS-CoV-2 3CL^pro (Severe acute respiratory syndrome coronavirus 2, UniProt P0DTD1); test: biochemical; format: biochemical

Sequence of MERS-CoV 3CL^pro (K9N7C7 3248-3553 limits assumed): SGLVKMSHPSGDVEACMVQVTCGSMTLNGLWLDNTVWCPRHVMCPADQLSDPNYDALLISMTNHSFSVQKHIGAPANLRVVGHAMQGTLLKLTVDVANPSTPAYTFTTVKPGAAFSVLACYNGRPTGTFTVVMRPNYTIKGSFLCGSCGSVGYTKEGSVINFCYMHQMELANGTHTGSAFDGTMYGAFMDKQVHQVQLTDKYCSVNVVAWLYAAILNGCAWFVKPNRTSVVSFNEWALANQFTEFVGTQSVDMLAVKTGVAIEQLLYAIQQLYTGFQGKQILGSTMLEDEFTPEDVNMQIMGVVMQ

Row | Compound | CC50 [1] | IC50 [2] | IC50 [3]
1 | CC(C)C[C@H](NC(=O)OC1CC2(CCN(C(=O)Cc3ccccc3)CC2)C1)C(=O)N[C@@H](C[C@H]1CCNC1=O)C(O)S(=O)(=O)O (stereo partly drawn) [Compound 9c, Sodium (2S)-1-hydroxy-2-((S)-4-methyl-2-((((7-(2-phenylacetyl)-7-azaspiro[3.5]nonan-2-yl)oxy)carbonyl)amino)pentanamido)-3-((R)-2-oxopyrrolidin-3-yl)propane-1-sulfonate] | > 100000 nM | 610 ± 130 nM | 290 ± 60 nM
2 | CC(C)C[C@H](NC(=O)OC1CC2(CCN(S(C)(=O)=O)CC2)C1)C(=O)N[C@@H](C[C@H]1CCNC1=O)C(O)S(=O)(=O)O (stereo partly drawn) [Compound 10c, Sodium (2S)-1-hydroxy-2-((S)-4-methyl-2-((((7-(methylsulfonyl)-7-azaspiro[3.5]nonan-2-yl)oxy)carbonyl)amino)pentanamido)-3-((R)-2-oxopyrrolidin-3-yl)propane-1-sulfonate] | > 100000 nM | 330 ± 40 nM | 240 ± 30 nM
3 | CC(C)C[C@H](NC(=O)OC1CC2(CCN(C#N)CC2)C1)C(=O)N[C@@H](C[C@H]1CCNC1=O)C(O)S(=O)(=O)O (stereo partly drawn) [Compound 11c, Sodium (2S)-2-((S)-2-((((7-cyano-7-azaspiro[3.5]nonan-2-yl)oxy)carbonyl)amino)-4-methylpentanamido)-1-hydroxy-3-((R)-2-oxopyrrolidin-3-yl)propane-1-sulfonate] | > 100000 nM | 630 ± 180 nM | 390 ± 30 nM
4 | CC(C)C[C@H](NC(=O)OC1CN(C(=O)OC(C)(C)C)C1)C(=O)N[C@@H](C[C@H]1CCNC1=O)C(O)S(=O)(=O)O (stereo partly drawn) [Compound 12c, Sodium (2S)-2-((S)-2-((((1-(tert-butoxycarbonyl)azetidin-3-yl)oxy)carbonyl)amino)-4-methylpentanamido)-1-hydroxy-3-((R)-2-oxopyrrolidin-3-yl)propane-1-sulfonate] | > 100000 nM | 2550 ± 920 nM | 3050 ± 350 nM
5 | CC(C)C[C@H](NC(=O)OC1(C)CN(C(=O)OC(C)(C)C)C1)C(=O)N[C@@H](C[C@H]1CCNC1=O)C(O)S(=O)(=O)O (stereo partly drawn) [Compound 13c, Sodium (2S)-2-((S)-2-((((1-(tert-butoxycarbonyl)-3-methylazetidin-3-yl)oxy)carbonyl)amino)-4-methylpentanamido)-1-hydroxy-3-((R)-2-oxopyrrolidin-3-yl)propane-1-sulfonate] | > 100000 nM | 4300 ± 280 nM | 2500 ± 570 nM
6 | CC(C)C[C@H](NC(=O)OCC1CN(C(=O)Cc2ccccc2)C1)C(=O)N[C@@H](C[C@H]1CCNC1=O)C(O)S(=O)(=O)O (stereo partly drawn) [Compound 15c, Sodium (2S)-1-hydroxy-2-((S)-4-methyl-2-((((1-(2-phenylacetyl)azetidin-3-yl)methoxy)carbonyl)amino)pentanamido)-3-((R)-2-oxopyrrolidin-3-yl)propane-1-sulfonate] | > 100000 nM | 180 ± 10 nM | 760 ± 80 nM
7 | CC(C)C[C@H](NC(=O)OCC1CN(C(=O)C2CC3CCC2C3)C1)C(=O)N[C@@H](C[C@H]1CCNC1=O)C(O)S(=O)(=O)O (stereo partly drawn) [Compound 16c, Sodium (2S)-2-((2S)-2-((((1-(bicyclo[2.2.1]heptane-2-carbonyl)azetidin-3-yl)methoxy)carbonyl)amino)-4-methylpentanamido)-1-hydroxy-3-((R)-2-oxopyrrolidin-3-yl)propane-1-sulfonate] | > 100000 nM | 170 ± 30 nM | 490 ± 20 nM
8 | CC(C)C[C@H](NC(=O)OCC1CN(S(C)(=O)=O)C1)C(=O)N[C@@H](C[C@H]1CCNC1=O)C(O)S(=O)(=O)O (stereo partly drawn) [Compound 17c, Sodium (2S)-1-hydroxy-2-((S)-4-methyl-2-((((1-(methylsulfonyl)azetidin-3-yl)methoxy)carbonyl)amino)pentanamido)-3-((R)-2-oxopyrrolidin-3-yl)propane-1-sulfonate] | > 100000 nM | 1350 ± 210 nM | 4050 ± 780 nM
